The text below walks through data of patent US9458198B1, “Cyclic peptide-based NPR-B agonists” (priority 2009, dated 2016).

In this experiment the target is T1, NPR-B (Homo sapiens, UniProt P20594).
T1 construct: a functional assay using endogenously NPR-B expressing GTM-3 cells; endogenous in cells; host or cells: GTM-3 (transformed human trabecular meshwork cells)
T1 sequence (P20594 23-1047): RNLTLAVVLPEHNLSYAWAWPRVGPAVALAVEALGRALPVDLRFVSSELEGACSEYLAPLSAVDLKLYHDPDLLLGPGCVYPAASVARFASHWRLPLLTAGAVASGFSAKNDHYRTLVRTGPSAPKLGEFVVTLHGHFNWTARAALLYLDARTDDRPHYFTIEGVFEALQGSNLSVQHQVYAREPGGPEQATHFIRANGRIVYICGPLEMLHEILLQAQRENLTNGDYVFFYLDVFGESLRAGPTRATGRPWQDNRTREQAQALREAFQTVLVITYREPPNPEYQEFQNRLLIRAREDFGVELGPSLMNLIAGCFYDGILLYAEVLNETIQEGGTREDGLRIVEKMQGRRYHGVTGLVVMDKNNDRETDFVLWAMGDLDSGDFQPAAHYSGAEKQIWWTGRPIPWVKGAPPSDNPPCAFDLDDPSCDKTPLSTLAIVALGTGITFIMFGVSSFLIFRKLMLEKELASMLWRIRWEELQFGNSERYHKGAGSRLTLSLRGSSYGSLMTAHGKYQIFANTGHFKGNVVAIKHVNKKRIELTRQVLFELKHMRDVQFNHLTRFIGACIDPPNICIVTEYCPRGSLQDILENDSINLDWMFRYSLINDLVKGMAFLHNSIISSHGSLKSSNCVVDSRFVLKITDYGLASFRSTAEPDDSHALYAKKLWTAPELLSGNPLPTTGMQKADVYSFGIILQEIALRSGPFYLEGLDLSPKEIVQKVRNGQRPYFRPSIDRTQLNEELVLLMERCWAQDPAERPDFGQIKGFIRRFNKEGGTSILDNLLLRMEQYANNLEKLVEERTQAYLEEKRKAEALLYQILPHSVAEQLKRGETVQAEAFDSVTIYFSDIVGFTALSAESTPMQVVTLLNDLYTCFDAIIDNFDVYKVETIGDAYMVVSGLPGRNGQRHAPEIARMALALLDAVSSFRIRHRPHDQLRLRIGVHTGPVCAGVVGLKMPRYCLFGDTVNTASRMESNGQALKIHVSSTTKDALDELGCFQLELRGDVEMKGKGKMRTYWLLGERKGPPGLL
Kind of experiment: NPR-B induced production of cyclic GMP in GTM-3 cells. In kind it is cell-based. How it is done: The efficacy and potency of compounds to activate NPR-B were evaluated in a functional assay using endogenously NPR-B expressing GTM-3 cells (Pang et al. 1994, Curr Eye Res 13:51-63). In this assay the dose dependent production of cyclic GMP (cGMP) is determined and Emax (maximum activation) and EC50 values are calculated.
The cell culture medium is aspirated and each well is washed with 200 μl DMEM/Ham's F12=Medium (Gibco). Then, 200 μl Medium supplemented with 1 mM IBMX (3-Isobutyl-1-methyl-xanthin, Sigma) is added to each well and incubated for 15 min. at room temperature.
Final compound concentrations are in the range from 45 μM to 20 nM.

The mark [1] stands for this setting: GTM-3 cells, group needs both EC50 and Emax criteria, checked A then B then C, read-out: Activity (group): NPR-B activation, EC50 and Emax (CNP = 100%).
Setting [2] is: Activity (group): NPR-B activation, EC50 and Emax (CNP = 100%), GTM-3 cells, group needs both EC50 and Emax criteria, checked A then B then C.
Where [3] appears, read: Activity (group): NPR-B activation, EC50 and Emax (CNP = 100%).

The term pEC50 denotes the EC50 on a negative log10 scale, so that one unit is a factor of ten.

pEC50: −log10 of the molar value. Where two headings read alike, the source gives them in different places. Where a SMILES comes first, the peptide text is derived from it. Bridges are numbered along the chain shown (N, C = ends). [ ]: non-standard residue; d: D form.

In the case of `CC[C@H](C)[C@@H]1NC(=O)[C@H](CCCNC(=N)N)NC(=O)[C@H](CC(=O)O)NC(=O)[C@H](CC(C)C)NC(=O)[C@H](CCCCN)NC(=O)[C@H](CC(C)C)NC(=O)[C@@H](C)NC(=O)[C@H](Cc2ccccc2)NC(=O)CNC(=O)[C@@H](NC(=O)[C@@H](N)CCSC)CSSC[C@@H](C(N)=O)NC(=O)[C@H](CO)NC1=O` [compound 34] (H-MCGF[dA]LKLDRISC-NH2; disulfide 2-13), the pEC50 under setting [1] is over 5.30. Same read-out and setting: next, `CC[C@H](C)[C@@H]1NC(=O)[C@H](CCCNC(=N)N)NC(=O)[C@H](CC(=O)O)NC(=O)[C@H](CC(C)C)NC(=O)[C@H](CCCCN)NC(=O)[C@H](CC(C)C)NC(=O)[C@@H](C)NC(=O)[C@H](Cc2ccccc2)NC(=O)[C@@H](Cc2c[nH]cn2)NC(=O)[C@@H](NC(=O)[C@@H](N)CCSC)CSSC[C@@H](C(N)=O)NC(=O)[C@H](CO)NC1=O` [compound 35]: over 5.30; `CC[C@H](C)[C@@H]1NC(=O)[C@H](CCCNC(=N)N)NC(=O)[C@H](CC(=O)O)NC(=O)[C@H](CC(C)C)NC(=O)[C@H](CCCCN)NC(=O)[C@H](CC(C)C)NC(=O)CNC(=O)[C@H](Cc2ccccc2)NC(=O)[C@H]2CCCN2C(=O)[C@@H](NC(=O)[C@@H](N)CCSC)CSSC[C@@H](C(N)=O)NC(=O)[C@H](CO)NC1=O` [compound 37]: over 5.30; `CC[C@H](C)[C@@H]1NC(=O)[C@H](CCCNC(=N)N)NC(=O)[C@H](CC(=O)O)NC(=O)[C@H](CC(C)C)NC(=O)[C@H](CCCCN)NC(=O)[C@H](CC(C)C)NC(=O)CNC(=O)[C@H](Cc2ccccc2)NC(=O)[C@@H](C)NC(=O)[C@@H](NC(=O)[C@@H](N)CCSC)CSSC[C@@H](C(N)=O)NC(=O)[C@H](CO)NC1=O` [compound 38]: over 5.30. Still for that read-out and setting: to `CC[C@H](C)[C@@H]1NC(=O)[C@H](CCCNC(=N)N)NC(=O)[C@H](CC(=O)O)NC(=O)[C@H](CC(C)C)NC(=O)[C@H](CCCCN)NC(=O)[C@H](CC(C)C)NC(=O)CNC(=O)[C@H](Cc2ccccc2)NC(=O)[C@@H](CO)NC(=O)[C@@H](NC(=O)[C@@H](N)CCSC)CSSC[C@@H](C(N)=O)NC(=O)[C@H](CO)NC1=O` [compound 39] belongs over 5.30; to `CC[C@H](C)[C@@H]1NC(=O)[C@H](CCCNC(=N)N)NC(=O)[C@H](CC(=O)O)NC(=O)[C@H](CC(C)C)NC(=O)[C@H](CCCCN)NC(=O)[C@H](CC(C)C)NC(=O)CNC(=O)[C@H](Cc2ccccc2)NC(=O)[C@@H](CC(N)=O)NC(=O)[C@@H](NC(=O)[C@@H](N)CCSC)CSSC[C@@H](C(N)=O)NC(=O)[C@H](CO)NC1=O` [compound 40], over 5.30. Molecule `CC[C@H](C)[C@@H]1NC(=O)[C@H](CCCNC(=N)N)NC(=O)[C@H](CC(=O)O)NC(=O)[C@H](CC(C)C)NC(=O)[C@@H]2CCCN2C(=O)[C@H](CC(C)C)NC(=O)CNC(=O)[C@H](Cc2ccccc2)NC(=O)[C@@H](Cc2c[nH]cn2)NC(=O)[C@@H](NC(=O)[C@@H](N)CCSC)CSSC[C@@H](C(N)=O)NC(=O)[C@H](CO)NC1=O` [compound 41] (H-MC[dH]FGLPLDRISC-NH2; disulfide 2-13) showed a pEC50 under setting [2] of over 5.30. On to `CC[C@H](C)[C@@H]1NC(=O)[C@H](CCCNC(=N)N)NC(=O)[C@H](CC(=O)O)NC(=O)[C@H](CC(C)C)NC(=O)[C@H](CCCNC(=N)N)NC(=O)[C@H](CC(C)C)NC(=O)CNC(=O)[C@H](Cc2ccccc2)NC(=O)[C@@H](Cc2c[nH]cn2)NC(=O)[C@@H](NC(=O)[C@@H](N)CCSC)CSSC[C@@H](C(N)=O)NC(=O)[C@H](CO)NC1=O` [compound 42] (H-MC[dH]FGLRLDRISC-NH2; disulfide 2-13), for which the pEC50 under setting [1] was over 5.30.

For `CC[C@H](C)[C@@H]1NC(=O)[C@H](CCCNC(=N)N)NC(=O)[C@H](CC(=O)O)NC(=O)[C@H](CC(C)C)NC(=O)[C@H](CCCCN)NC(=O)[C@H](CC(C)C)NC(=O)CNC(=O)[C@H](Cc2ccccc2)NC(=O)[C@@H](Cc2ccccc2)NC(=O)[C@@H](NC(=O)[C@@H](N)CCSC)CSSC[C@@H](C(N)=O)NC(=O)[C@H](CO)NC1=O` [compound 45], the pEC50 under setting [1] was over 4.82. On to `CC[C@H](C)[C@@H]1NC(=O)[C@H](CCCNC(=N)N)NC(=O)[C@H](CC(=O)O)NC(=O)[C@H](CC(C)C)NC(=O)[C@@H]2CCCN2C(=O)[C@H](CC(C)C)NC(=O)CNC(=O)[C@H](Cc2ccccc2)NC(=O)[C@@H](C)NC(=O)[C@@H](NC(=O)[C@@H](N)CCSC)CSSC[C@@H](C(N)=O)NC(=O)[C@H](CO)NC1=O` [compound 49], for which the pEC50 under setting [2] was over 6.00.

In the case of `CC[C@H](C)[C@@H]1NC(=O)[C@H](CCCNC(=N)N)NC(=O)[C@H](CC(=O)O)NC(=O)[C@H]([C@@H](C)CC)NC(=O)[C@H](CCCCN)NC(=O)[C@H](CC(C)C)NC(=O)CNC(=O)[C@H](Cc2ccccc2)NC(=O)[C@@H](C)NC(=O)[C@@H](NC(=O)[C@@H](N)CCSC)CSSC[C@@H](C(N)=O)NC(=O)[C@H](CO)NC1=O` [compound 53] (H-MC[dA]FGLKIDRISC-NH2; disulfide 2-13), the pEC50 under setting [1] was over 6.00. The same measure, in the same setting: to `CC[C@H](C)[C@@H]1NC(=O)[C@H](CCCNC(=N)N)NC(=O)[C@H](CC(=O)O)NC(=O)[C@H](C(C)C)NC(=O)[C@H](CCCCN)NC(=O)[C@H](CC(C)C)NC(=O)CNC(=O)[C@H](Cc2ccccc2)NC(=O)[C@@H](C)NC(=O)[C@@H](NC(=O)[C@@H](N)CCSC)CSSC[C@@H](C(N)=O)NC(=O)[C@H](CO)NC1=O` [compound 54] (H-MC[dA]FGLKVDRISC-NH2; disulfide 2-13) belongs over 5.30; to `CSCC[C@H](N)C(=O)N[C@H]1CSSC[C@@H](C(N)=O)NC(=O)[C@H](CO)NC(=O)[C@H](CC(C)C)NC(=O)[C@H](CCCNC(=N)N)NC(=O)[C@H](CC(=O)O)NC(=O)[C@H](CC(C)C)NC(=O)[C@H](CCCCN)NC(=O)[C@H](CC(C)C)NC(=O)CNC(=O)[C@H](Cc2ccccc2)NC(=O)[C@@H](C)NC1=O` [compound 56] (H-MC[dA]FGLKLDRLSC-NH2; disulfide 2-13), over 5.30.

For the molecule `CSCC[C@H](N)C(=O)N[C@H]1CSSC[C@@H](C(N)=O)NC(=O)[C@H](CO)NC(=O)[C@H](C(C)C)NC(=O)[C@H](CCCNC(=N)N)NC(=O)[C@H](CC(=O)O)NC(=O)[C@H](CC(C)C)NC(=O)[C@H](CCCCN)NC(=O)[C@H](CC(C)C)NC(=O)CNC(=O)[C@H](Cc2ccccc2)NC(=O)[C@@H](C)NC1=O` [compound 57] (H-MC[dA]FGLKLDRVSC-NH2; disulfide 2-13), the pEC50 under setting [1] is over 5.30.

Under setting [3], `CCC(=O)N[C@H]1CSSC[C@@H](C(N)=O)NC(=O)[C@H](CO)NC(=O)[C@H]([C@@H](C)CC)NC(=O)[C@H](CCCNC(=N)N)NC(=O)[C@H](CC(=O)O)NC(=O)[C@H](CC(C)C)NC(=O)[C@H](CCCCN)NC(=O)[C@H](CC(C)C)NC(=O)CNC(=O)[C@H](Cc2ccccc2)NC(=O)[C@@H](C)NC1=O` [compound 62] showed a pEC50 of over 5.30.

In turn, `CC[C@H](C)[C@@H]1NC(=O)[C@H](CCCNC(=N)N)NC(=O)[C@H](CC(=O)O)NC(=O)[C@H](CC(C)C)NC(=O)[C@H](CCCCN)NC(=O)[C@H](CC(C)C)NC(=O)CNC(=O)[C@H](Cc2ccccc2)NC(=O)[C@@H](C)NC(=O)[C@@H](NC(=O)CC(C)C)CSSC[C@@H](C(N)=O)NC(=O)[C@H](CO)NC1=O` [compound 63] showed a pEC50 under setting [3] of over 5.30.

Under setting [3], `CC[C@H](C)[C@@H]1NC(=O)[C@H](CCCNC(=N)N)NC(=O)[C@H](CC(=O)O)NC(=O)[C@H](CC(C)C)NC(=O)[C@H](CCCCN)NC(=O)[C@H](CC(C)C)NC(=O)CNC(=O)[C@H](Cc2ccccc2)NC(=O)[C@@H](C)NC(=O)[C@@H](NC(=O)CCC(C)C)CSSC[C@@H](C(N)=O)NC(=O)[C@H](CO)NC1=O` [compound 64] showed a pEC50 of over 6.00. `CCCCCC(=O)N[C@H]1CSSC[C@@H](C(N)=O)NC(=O)[C@H](CO)NC(=O)[C@H]([C@@H](C)CC)NC(=O)[C@H](CCCNC(=N)N)NC(=O)[C@H](CC(=O)O)NC(=O)[C@H](CC(C)C)NC(=O)[C@H](CCCCN)NC(=O)[C@H](CC(C)C)NC(=O)CNC(=O)[C@H](Cc2ccccc2)NC(=O)[C@@H](C)NC1=O` [compound 65] had a pEC50 under setting [3] of over 6.00.
